Consider 19 compounds from patent publication US20260234165A1, “MACROCYCLIC COMPOUNDS, PREPARATION METHOD THEREFOR, AND USE THEREOF” (GENFLEET THERAPEUTICS (SHANGHAI) INC., priority 2004, published 2026).

By IC50 is commonly meant the concentration that inhibits the measured activity by half.

Each structure is given as a SMILES string.

The first experiment concerns p-ERK in AsPC-1 cells (KRAS G12D mutation). The experiment can be described thus: Cell p-ERK assay (HTRF) in AsPC-1 cells. Format: cell-based, human. The following applies: AsPC-1 cells, 3 h compound incubation, HTRF p-ERK T202/Y204; read-out: AsPC-1 p-ERK IC50. In short, it runs like this:
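Cells are plated (AsPC-1 at 10000, NCI-H441 at 20000 per well) and cultured overnight. Next day compound is added in a 3.16-fold dilution series with 0.1% DMSO and left 3 h. After lysis, p-ERK antibodies incubate 4 h before HTRF reading and four-parameter IC50 fitting.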
(In general: TR-FRET usually uses a lanthanide donor and a delayed reading to cut background.)
As for `CCn1c(-c2cc(C#CCN3CCOC[C@H]3C)cnc2[C@H](C)OC)c2c3cc(ccc31)-c1csc(n1)C[C@H](NC(=O)[C@H]1[C@H](C)[C@@H]1C)C(=O)N1CCCC(N1)C(=O)OCC(C)(C)C2` (atropisomer, axis not shown; (Ra)) [Compound Z813], the IC50 worked out at 0.08 nM.
On the same count and under the same terms, to `CCn1c(-c2cc(C#CCN3C4CCC3COC4)cnc2[C@H](C)OC)c2c3cc(ccc31)-c1csc(n1)C[C@H](NC(=O)[C@H]1[C@H](C)[C@@H]1C)C(=O)N1CCC[C@H](N1)C(=O)OCC(C)(C)C2` (atropisomer, axis not shown; (Ra)) [Compound Z711, (1r,2R,3S)—N-((6^3S,4S,Z)—(Ra)-1^2-(5-(3-(3-oxa-8-azabicyclo[3.2.1]octan-8-yl)prop-1-yn-1-yl)-2-((S)-1-methoxyethyl)pyridin-3-yl)-1^1-ethyl-10,10-dimethyl-5,7-dioxo-6^1,6^2,6^3,6^4,6^5,6^6-hexahydro-1^1H-8-oxa-2(4,2)-thiazola-1(5,3)-indola-6(1,3)-pyridazinacycloundecaphane-4-yl)-2,3-dimethylcyclopropane-1-carboxamide] belongs 0.32 nM.
`CCn1c(-c2cc(C#CCN3CCCOCC3)cnc2C(C)C)c2c3cc(ccc31)-c1csc(n1)C[C@H](NC(=O)[C@H]1[C@H](C)[C@@H]1C)C(=O)N1CCC[C@H](N1)C(=O)OCC(C)(C)C2` (atropisomer, axis not shown; (Sa)) [Compound Z811-2, (1r,2R,3S)—N-((6^3S,4S,Z)—(Sa)-1-(5-(3-(1,4-oxazepan-4-yl)prop-1-yn-1-yl)-2-isopropylpyridin-3-yl)-1^1-ethyl-10,10-dimethyl-5,7-dioxo-6^1,6^2,6^3,6^4,6^5,6^6-hexahydro-1^1H-8-oxa-2(4,2)-thiazola-1(5,3)-indola-6(1,3)-pyridazinacycloundecaphane-4-yl)-2,3-dimethylcyclopropane-1-carboxamide]: the IC50 is 0.58 nM.
Turning to `CCn1c(-c2cc(C#CCN(C)CCOC)cnc2[C@H](C)OC)c2c3cc(ccc31)-c1csc(n1)C[C@H](NC(=O)[C@H]1[C@H](C)[C@@H]1C)C(=O)N1CCC[C@H](N1)C(=O)OCC(C)(C)C2` (atropisomer, axis not shown; (Ra)) [Compound Z788], the IC50 came out at 0.38 nM.
Regarding `CO[C@@H](C)c1ncc(C#CCN2CCCOCC2)cc1-c1c2c3cc(ccc3n1CC(F)(F)F)-c1csc(n1)C[C@H](NC(=O)[C@H]1[C@H](C)[C@@H]1C)C(=O)N1CCC[C@H](N1)C(=O)OCC(C)(C)C2` (atropisomer, axis not shown; (Ra)) [Compound Z700, N-((6^3S,4S,Z)-1^1-(2,2,2-trifluoroethyl)-(Ra)-1^2-(2-((S)-1-methoxyethyl)-(5-(3-(1,4-oxazepan-4-yl)prop-1-yn-1-yl))-pyridin-3-yl)-10,10-dimethyl-5,7-dioxo-6^1,6^2,6^3,6^4,6^5,6^6-hexahydro-1^1H-8-oxa-2(4,2)-thiazola-1(5,3)-indola-6(1,3)-pyridazinacycloundecaphane-4-yl)-2,3-dimethylcyclopropane-1-carboxamide], the 50% inhibitory concentration (IC50) amounted to 0.16 nM.

The same experiment, now with this note: Homo sapiens, ASPC1, 3 h, AsPC-1 cells, 3 h compound incubation, HTRF p-ERK T202/Y204; read-out: AsPC-1 p-ERK IC50.
As to `CCn1c(-c2cc(C#CCN3CCCN(C)CC3)cnc2[C@H](C)OC)c2c3cc(ccc31)-c1csc(n1)C[C@H](NC(=O)[C@H]1[C@H](C)[C@@H]1C)C(=O)N1CCC[C@H](N1)C(=O)OCC(C)(C)C2` (atropisomer, axis not shown; (Ra)) [Compound Z802, (1r,2R,3S)—N-((6^3S,4S,Z)-1^2-(5-(3-(4-methyl-1,4-diaza-1-yl)prop-1-yn-1-yl)-(Ra)-2-((S)-1-methoxyethyl)pyridin-3-yl)-1^1-ethyl-10,10-dimethyl-5,7-dioxo-6^1,6^2,6^3,6^4,6^5,6^6-hexahydro-1^1H-8-oxa-2(4,2)-thiazola-1(5,3)-indola-6(1,3)-pyridazinacycloundecaphane-4-yl)-2,3-dimethylcyclopropane-1-carboxamide], the IC50 came out at 0.2 nM.
As for `CCn1c(-c2cc(C#CCN3CCC(C(F)(F)F)CC3)cnc2[C@H](C)OC)c2c3cc(ccc31)-c1csc(n1)C[C@H](NC(=O)[C@H]1[C@H](C)[C@@H]1C)C(=O)N1CCC[C@H](N1)C(=O)OCC(C)(C)C2` (atropisomer, axis not shown; (Ra)) [Compound Z778], the 50% inhibitory concentration (IC50) is 1.53 nM.
`CCn1c(-c2cc(C#C[C@@H]3COCCN3C)cnc2[C@H](C)OC)c2c3cc(ccc31)-c1csc(n1)C[C@H](NC(=O)[C@H]1[C@H](C)[C@@H]1C)C(=O)N1CCC[C@H](N1)C(=O)OCC(C)(C)C2` (atropisomer, axis not shown; (Ra)) [Compound Z672, (1r,2R,3S)—N-((6^3S,4S,Z)-1^1-ethyl-(Ra)-1^2-(2-((S)-1-methoxyethyl)-5-(((R)-4-methylmorpholin-3-yl)ethynyl)pyridin-3-yl)-10,10-dimethyl-5,7-dioxo-6^1,6^2,6^3,6^4,6^5,6^6hexahydro-1^1H-8-oxa-2(4,2)-thiazola-1(5,3)-indola-6(1,3)-pyridazinacycloundecaphane-4-yl)-2,3-dimethylcyclopropane-1-carboxamide]: the IC50 turned out to be 0.39 nM.
As to `CCn1c(-c2cc(C#CCN3CCS(=O)(=O)CC3)cnc2[C@H](C)OC)c2c3cc(ccc31)-c1csc(n1)C[C@H](Nc1nnc3cc(C)ccn13)C(=O)N1CCC[C@H](N1)C(=O)OCC(C)(C)C2` (atropisomer, axis not shown; (Ra)) [Compound Z911, (6^3S,4S,Z)—(Ra)-1^2-(5-(3-(1,1-dioxidothiomorpholino)prop-1-yn-1-yl)-2-((S)-1-methoxyethyl)pyridin-3-yl)-1^1-ethyl-10,10-dimethyl-4-((7-methyl-[1,2,4]triazolo[4,3-a]pyridin-3-yl)amino)-6^1,6^2,6^3,6^4,6^5,6^6-hexahydro-1^1H-8-oxa-2(4,2)-thiazola-1(5,3)-indola-6(1.3)-pyridazinacycloundecaphane-5,7-dione], the IC50 was determined as 2.23 nM.
As to `CCn1c(-c2cc(C#CCN3CCC3)cnc2[C@H](C)OC)c2c3cc(ccc31)-c1csc(n1)C[C@H](NC(=O)[C@H]1[C@H](C)[C@@H]1C)C(=O)N1CCC[C@H](N1)C(=O)OCC(C)(C)C2` (single isomer, unassigned) [Compound Z554], the IC50 stood at 0.67 nM.
On to `CCn1c(-c2cc(C#CCN3CCN(C)C(=O)C3)cnc2[C@H](C)OC)c2c3cc(ccc31)-c1csc(n1)C[C@H](NC(=O)[C@H]1[C@H](C)[C@@H]1C)C(=O)N1CCC[C@H](N1)C(=O)OCC(C)(C)C2` (atropisomer, axis not shown; (Ra)) [Compound Z793], for which the IC50 came to 0.19 nM.
With `CCn1c(-c2cc(C#CCN3CCCOCC3)cnc2[C@H](C)OC)c2c3cc(ccc31)-c1csc(n1)C[C@H](NC(=O)[C@H]1[C@H](C)[C@@H]1C)C(=O)N1CCC[C@H](N1)C(=O)OCC(C)(C)C2` (single isomer, unassigned) [Compound Z504], the IC50 was determined as 0.16 nM.
Same read-out and setting: the value for `CCO[C@@H](C)c1ncc(N2CCN(CCS(C)(=O)=O)CC2)cc1-c1c2c3cc(ccc3n1CC)-c1csc(n1)C[C@H](NC(=O)[C@H]1[C@H](C)[C@@H]1C)C(=O)N1CCC[C@H](N1)C(=O)OCC1(CC1)C2` (single isomer, unassigned) [Compound Z378-1] was 10.6 nM.
`CCn1c(-c2cc(C#CCN3CCCOCC3)cnc2[C@H](C)OC)c2c3cc(ccc31)-c1csc(n1)C[C@H](NC(=O)CC1CC1)C(=O)N1CCC[C@H](N1)C(=O)OCC(C)(C)C2` (atropisomer, axis not shown; (Ra)) [Compound Z915]: the IC50 is 1.26 nM.
Regarding `CCn1c(-c2cc(N3CCN4CC5(CC5)OC[C@@H]4C3)cnc2[C@H](C)OC)c2c3cc(ccc31)-c1csc(n1)C[C@H](NC(=O)[C@H]1[C@H](C)[C@@H]1C)C(=O)N1CCC[C@H](N1)C(=O)OCC1(CC1)C2` (atropisomer, axis not shown; (Ra)) [Compound Z13], the IC50 was 2.24 nM.
`CCn1c(-c2cc(C#CCN3CCCOCC3)cnc2[C@H](C)OC)c2c3cc(ccc31)-c1csc(n1)C[C@H](NC(=O)[C@H]1C[C@@H]1C)C(=O)N1CCC[C@H](N1)C(=O)OCC(C)(C)C2` (single isomer, unassigned) [Compound Z604]: the IC50 was 0.51 nM.
As to `CCn1c(-c2cc(C#CCN3CCS(=O)(=O)CC3)cnc2[C@H](C)OC)c2c3cc(ccc31)-c1csc(n1)C[C@H](NC(=O)[C@H]1[C@H](C)[C@@H]1C)C(=O)N1CCC[C@H](N1)C(=O)OCC(C)(C)C2` (atropisomer, axis not shown; (Ra)) [Compound Z838, (1r,2R,3S)—N-((6^3S,4S,Z)—(Ra)-1^2-(5-(3-(1,1-dioxidothiomorpholino)prop-1-yn-1-yl)-2-((S)-1-methoxyethyl)pyridin-3-yl)-1^1-ethyl-10,10-dimethyl-5,7-dioxo-6^1,6^2,6^3,6^4,6^5,6^6-hexahydro-1^1H-8-oxa-2(4,2)-thiazola-1(5,3)-indola-6(1,3)-pyridazinacycloundecaphane-4-yl)-2,3-dimethylcyclopropane-1-carboxamide], the IC50 is 0.08 nM.
As for `CCn1c(-c2cc(N3CCN(CCS(C)(=O)=O)CC3)cnc2[C@H](C)OC)c2c3cc(ccc31)-c1csc(n1)C[C@H](NC(=O)[C@H]1[C@H](C)[C@@H]1C)C(=O)N1CCC[C@H](N1)C(=O)OCC1(CC1)C2` (single isomer, unassigned) [Compound Z367], the IC50 was 7.29 nM.
`CCn1c(-c2cc(C#CCN3CCCOCC3)cnc2[C@H](C)OC)c2c3cc(ccc31)-c1csc(n1)C[C@H](NC(=O)CC(C)C)C(=O)N1CCC[C@H](N1)C(=O)OCC(C)(C)C2` (single isomer, unassigned) [Compound Z803]: the IC50 came to 0.85 nM.
